For test [1], the target named is T1, Cholecystokinin receptor type A (Cavia porcellus, UniProt Q63931).
T1 sequence (Q63931 whole entry): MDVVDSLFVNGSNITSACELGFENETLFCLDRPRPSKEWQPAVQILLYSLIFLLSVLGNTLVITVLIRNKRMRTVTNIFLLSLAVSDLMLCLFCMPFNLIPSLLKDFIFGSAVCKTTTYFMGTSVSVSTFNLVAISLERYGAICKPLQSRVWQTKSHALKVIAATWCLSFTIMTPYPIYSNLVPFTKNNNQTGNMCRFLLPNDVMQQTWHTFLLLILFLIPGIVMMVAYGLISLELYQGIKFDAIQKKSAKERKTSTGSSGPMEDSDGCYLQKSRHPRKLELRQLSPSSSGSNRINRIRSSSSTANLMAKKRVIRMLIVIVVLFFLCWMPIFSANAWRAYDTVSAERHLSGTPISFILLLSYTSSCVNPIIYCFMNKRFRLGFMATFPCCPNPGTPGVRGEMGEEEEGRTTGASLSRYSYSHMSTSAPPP
Description: Binding affinity towards Cholecystokinin type A receptor was determined in guinea pig pancreatic membranes using [125I]-BH-CCK-8 as radioligand. It is filed as cell membranes.

Another test deals with Mu-type opioid receptor (Cavia porcellus, UniProt P97266). Description: Binding affinity towards Opioid receptor mu 1 was determined in guinea pig whole brain using [3H]CTOP radioligand.

Experimental findings from ChEMBL document CHEMBL1129440, “The use of topographical constraints in receptor mapping: investigation of the topographical requirements of the tryptophan 30 residue for receptor binding of Asp-Tyr-D-Phe-Gly-Trp-(N-Me)Nle-Asp-Phe-NH2 (SNF 9007), a cholecystokinin (26-33) analogue that binds to both CCK-B and delta-opioid …” (J Med Chem, 1996) are described below.

Structures are written as SMILES.

Mu-type opioid receptor, sequence (P97266 whole entry): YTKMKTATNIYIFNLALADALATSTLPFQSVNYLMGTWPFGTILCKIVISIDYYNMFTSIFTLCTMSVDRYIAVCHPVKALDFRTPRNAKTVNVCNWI

As for `CCCC[C@@H](C(=O)N[C@@H](CC(=O)O)C(=O)N[C@@H](Cc1ccccc1)C(N)=O)N(C)C(=O)[C@H](NC(=O)CNC(=O)[C@@H](Cc1ccccc1)NC(=O)[C@H](Cc1ccc(O)cc1)NC(=O)[C@@H](N)CC(=O)O)[C@H](C)c1c[nH]c2ccccc12`, the IC50 in test [1] (read-out: IC50) was 8.6 µM; at Mu-type opioid receptor, greater than 30 µM.

On to `CCCC[C@@H](C(=O)N[C@@H](CC(=O)O)C(=O)N[C@@H](Cc1ccccc1)C(N)=O)N(C)C(=O)[C@H](NC(=O)CNC(=O)[C@@H](Cc1ccccc1)NC(=O)[C@H](Cc1ccc(O)cc1)NC(=O)[C@@H](N)CC(=O)O)[C@@H](C)c1c[nH]c2ccccc12`, for which the IC50 in test [1] (read-out: IC50) is 8.6 µM; at Mu-type opioid receptor, greater than 30 µM.

For `CCCC[C@@H](C(=O)N[C@@H](CC(=O)O)C(=O)N[C@@H](Cc1ccccc1)C(N)=O)N(C)C(=O)[C@@H](NC(=O)CNC(=O)[C@@H](Cc1ccccc1)NC(=O)[C@H](Cc1ccc(O)cc1)NC(=O)[C@@H](N)CC(=O)O)[C@H](C)c1c[nH]c2ccccc12`, the IC50 came out at 1 µM in test [1] (read-out: IC50) and 3.05 µM on Mu-type opioid receptor.

With `CCCC[C@@H](C(=O)N[C@@H](CC(=O)O)C(=O)N[C@@H](Cc1ccccc1)C(N)=O)N(C)C(=O)[C@@H](NC(=O)CNC(=O)[C@@H](Cc1ccccc1)NC(=O)[C@H](Cc1ccc(O)cc1)NC(=O)[C@@H](N)CC(=O)O)[C@@H](C)c1c[nH]c2ccccc12`, the values for the IC50 (in test [1] (read-out: IC50); at Mu-type opioid receptor) were greater than 1.2 µM and 6.8 µM, respectively.

For the compound `CCCC[C@@H](C(=O)N[C@@H](CC(=O)O)C(=O)N[C@@H](Cc1ccccc1)C(N)=O)N(C)C(=O)[C@H](Cc1c[nH]c2ccccc12)NC(=O)CNC(=O)[C@@H](Cc1ccccc1)NC(=O)[C@H](Cc1ccc(O)cc1)NC(=O)[C@@H](N)CC(=O)O`, the figures for the IC50 (in test [1] (read-out: IC50); on Mu-type opioid receptor) were greater than 12 µM and 0.7 µM, respectively.

As for `CC1(C)SSC(C)(C)[C@H](C(=O)O)NC(=O)C(Cc2ccccc2)NC(=O)CNC(=O)C1NC(=O)[C@@H](N)Cc1ccc(O)cc1` (single isomer, unassigned), in test [1], the half-maximal inhibitory concentration (IC50) result was “Not Active”.

For orientation: IC50 means the midpoint of a concentration-inhibition curve.
